Data from US20150218212A1, “FLUORINATED EPOXYKETONE-BASED TETRAPEPTIDE COMPOUNDS AND USES THEREOF AS PROTEASOME INHIBITORS” (FLUORINOV PHARMA INC., priority 2012, published 2015).

Tests used:
MDA-MB-231/ATCC = experiment: NCI screening panel, MDA-MB-231/ATCC (Breast Cancer); type: cell-based, human
Experimental: (§1) Representative compounds of Formula I were screened using the National Cancer Institute (NCI) screening panel, which consists of a panel of human tumor cell lines, representing leukemia, melanoma, and cancers of the lung, colon, ovary, breast, prostate and renal system.
(§2) After 24 h, two plates of each cell line are fixed in situ with TCA, to represent a measurement of the cell population for each cell line at the time of drug addition (Tz). Experimental drugs are solubilised in dimethyl sulfoxide at 400-fold the desired final maximum test concentration and stored frozen prior to use. At the time of drug addition, an aliquot of frozen concentrate is thawed and diluted to twice the desired final maximum test concentration with complete medium containing 50 μg/mL gentamicin. Additional four, 10-fold or ½ log serial dilutions are made to provide a total of five drug concentrations plus control. Aliquots of 100 μl of these different drug dilutions are added to the appropriate microtiter wells already containing 100 μl of medium, resulting in the required final drug concentrations.
(§3) Following drug addition, the plates are incubated for an additional 48 h at 37° C., 5% CO2, 95% air, and 100% relative humidity. For adherent cells, the assay is terminated by the addition of cold TCA (trichloroacetic acid). Cells are fixed in situ by the gentle addition of 50 μl of cold 50% (w/v) TCA (final concentration, 10% TCA) and incubated for 60 minutes at 4° C. The supernatant is discarded, and the plates are washed five times with tap water and air dried. Sulforhodamine B (SRB) solution (100 μl) at 0.4% (w/v) in 1% acetic acid is added to each well, and plates are incubated for 10 minutes at room temperature. After staining, unbound dye is removed by washing five times with 1% acetic acid and the plates are air dried. Bound stain is subsequently solubilised with 10 mM trizma base, and the absorbance is read on an automated plate reader at a wavelength of 515 nm. For suspension cells, the methodology is the same except that the assay is terminated by fixing settled cells at the bottom of the wells by gently adding 50 μl of 80% TCA (final concentration, 16% TCA). Using the seven absorbance measurements [time zero, (Tz), control growth, (C), and test growth in the presence of drug at the five concentration levels (Ti)], the percentage growth is calculated at each of the drug concentrations levels. Percentage growth inhibition is calculated as: [(Ti−Tz)/(C−Tz)]×100 for concentrations for which Ti>/=Tz and [(Ti−Tz)/Tz]×100 for concentrations for which Ti<Tz.
(§4) Three dose response parameters are calculated for each experimental agent. Growth inhibition of 50% (GI50) is calculated from [(Ti−Tz)/(C−Tz)]×100=50, which is the drug concentration resulting in a 50% reduction in the net protein increase (as measured by SRB staining) in control cells during the drug incubation. The drug concentration resulting in total growth inhibition (TGI) is calculated from Ti=Tz. The LC50 (concentration of drug resulting in a 50% reduction in the measured protein at the end of the drug treatment as compared to that at the beginning) indicating a net loss of cells following treatment is calculated from [(Ti−Tz)/Tz]×100=−50. Values are calculated for each of these three parameters if the level of activity is reached. However, if the effect is not reached or is exceeded, the value for that parameter is expressed as greater or less than the maximum or minimum concentration tested.

HOP-62 = experiment: NCI screening panel, HOP-62 (Non-Small Cell Lung Cancer); type: cell-based, human
Experimental: as §1, §2, §3, §4

SR = experiment: NCI screening panel, SR (Leukemia); type: cell-based, human
Experimental: as §1, §2, §3, §4

SK-MEL-28 = experiment: NCI screening panel, SK-MEL-28 (Melanoma); type: cell-based, human
Experimental: as §1, §2, §3, §4

OCI-AML-2 = experiment: Cell viability (MTS) assay, OCI-AML-2; type: cell-based; conditions: Homo sapiens, OCI-AML2; OCI-AML-2, MTS, 72 hours, mean ± standard deviation
Experimental: Human multiple myeloma cell lines 8226, H929, JJN3, KMH11, KMS11, KMS18, LP1, MM1S, OPM2 and U266 were grown in Iscove modified Dulbecco's medium (IMDM). Human leukemia cell lines K562, OCI-AML2 and U937 were cultured in RPMI-1640 medium. Primary peripheral blood mononuclear cells were isolated from multiple myeloma patients by Ficoll density gradient centrifugation and bone marrow aspirates were obtained from multiple myeloma patients at the Princess Margaret Cancer Centre of the University Health Network (UHN; Toronto, ON, Canada). Primary cells were cultured in IMDM. The collection and use of human tissue for this study was approved by the UHN institutional ethics review board. All cell culture media were obtained from the Ontario Cancer Institute Tissue Culture Media Facility (Toronto, ON, Canada) and were supplemented with 10% fetal calf serum, […] (Hyclone, Logan, Utah). All cells were grown in a humidified incubator at 37° C. with 5% CO2.
Cellular viability was primarily assessed by 3-(4,5-dimethylthiazol-2-yl)-5-(3-carboxymethoxyphenyl)-2-(4-sulfophenyl)-2H-tetrazolium (MTS) assay according to the manufacturer's instructions (Promega; Madison, Wis.). Cells were first seeded at a density of 10,000 cells per well in tissue culture-treated 96-well plates. Two hours after seeding, cells were treated with compounds for 72 hours at concentrations as indicated. As a control, cells were treated with DMSO alone in every assay plate. Following treatment and the MTS assay, cell viability was independently confirmed by reading the optical density (O.D.) at 490 nm and by exclusion of trypan blue stain (Invitrogen; Burlington, ON, Canada). The viability of primary mononuclear cells was determined by staining with Annexin V.
Table 8 summarizes the data of representative compounds of Formula I for cell viability and CT-L proteasome activity with OCI-AML-2 and KMS-11 cell lines.

K-562 = experiment: NCI screening panel, K-562 (Leukemia); type: cell-based, human
Experimental: as §1, §2, §3, §4

MDA-MB-468 = experiment: NCI screening panel, MDA-MB-468 (Breast Cancer); type: cell-based, human
Experimental: as §1, §2, §3, §4

IGROV1 = experiment: NCI screening panel, IGROV1 (Ovarian Cancer); type: cell-based, human
Experimental: as §1, §2, §3, §4

BT-549 = experiment: NCI screening panel, BT-549 (Breast Cancer); type: cell-based, human
Experimental: as §1, §2, §3, §4

A549/ATCC = experiment: NCI screening panel, A549/ATCC (Non-Small Cell Lung Cancer); type: cell-based, human
Experimental: as §1, §2, §3, §4

SMILES	Log10GI50 (MDA-MB-231/ATCC)	Log10LC50 (MDA-MB-231/ATCC)	Log10TGI50 (MDA-MB-231/ATCC)	Log10GI50 (HOP-62)	Log10LC50 (HOP-62)	Log10TGI50 (HOP-62)	Log10GI50 (SR)	Log10LC50 (SR)	Log10TGI50 (SR)	Log10GI50 (SK-MEL-28)	Log10TGI50 (SK-MEL-28)	IC50 (OCI-AML-2)	Log10GI50 (K-562)	Log10LC50 (K-562)	Log10TGI50 (K-562)	Log10GI50 (MDA-MB-468)	Log10LC50 (MDA-MB-468)	Log10TGI50 (MDA-MB-468)	Log10GI50 (IGROV1)	Log10LC50 (IGROV1)	also measured
CC(C)C[C@H](NC(=O)[C@H](COC(F)F)NC(=O)CN1CCOCC1)C(=O)N[C@@H](COC(F)F)C(=O)N[C@@H](CC(C)C)C(=O)[C@@]1(C)CO1 [Example 1, (2S)—N-[(1S)-1-(difluoromethoxymethyl)-2-[[(1S)-3-methyl-1-[(2R)-2-methyloxirane-2-carbonyl]butyl]amino]-2-oxo-ethyl]-2-[[(2S)-3-(difluoromethoxy)-2-[(2-morpholinoacetyl)amino]propanoyl]amino]-4-methyl-pentanamide]	−7.52	>−4.00	−6.76	−7.76	−6.57	−7.33	−7.52	>−4.00	−4.61	−7.56	−6.97	24.2 ± 7.2 nM	−7.38	>−4.00	>−4.00	−7.55	>−4.00	−6.89	−7.43	>−4.00	Log10LC50 (SK-MEL-28): >−4.00; Log10TGI50 (IGROV1): −6.40; Log10GI50 (BT-549): −7.85; Log10LC50 (BT-549): −6.61; Log10TGI50 (BT-549): −7.40; Log10GI50 (A549/ATCC): −7.46; Log10LC50 (A549/ATCC): >−4.00; Log10TGI50 (A549/ATCC): −5.49
CC(C)C[C@H](NC(=O)[C@H](COC(F)F)NC(=O)[C@H](COC(F)F)NC(=O)[C@H](CCc1ccccc1)NC(=O)CN1CCOCC1)C(=O)[C@@]1(C)CO1 [Example 7, (2S)-N-[(1S)-1-(difluoromethoxymethyl)-2-[[(1S)-1-(difluoromethoxymethyl)-2-[[(1S)-3-methyl-1-[(2R)-2-methyloxirane-2-carbo-nyl]butyl]amino]-2-oxo-ethyl]amino]-2-oxo-ethyl]-2-[(2-morpholinoacetyl)amino]-4-phenyl-butanamide]	−7.64	−4.92	−7.14	−7.63	>−4.00	−7.00	−7.64	>−4.00	>−4.00	−7.44	>−4.00	61.1 ± 10.1 nM	−7.37	>−4.00	>−4.00	−7.58	−4.78	−7.09	−7.49	>−4.00	Log10TGI50 (IGROV1): −5.55; Log10GI50 (BT-549): −7.68; Log10LC50 (BT-549): >−4.00; Log10TGI50 (BT-549): −7.07; Log10GI50 (A549/ATCC): −7.43; Log10LC50 (A549/ATCC): >−4.00; Log10TGI50 (A549/ATCC): >−4.00
CC(C)C[C@H](NC(=O)[C@H](COC(F)F)NC(=O)CN1CCOCC1)C(=O)N[C@@H](Cc1ccccc1)C(=O)N[C@@H](CC(C)C)C(=O)[C@@]1(C)CO1 [Example 2, (2S)-N-[(1S)-1-benzyl-2-[[(1S)-3-methyl-1-[(2R)-2-methyloxirane-2-carbonyl]butyl]-amino]-2-oxo-ethyl]-2-[[(2S)-3-(difluoromethoxy)-2-[(2-morpholinoacetyl)amino]propanoyl]amino]-4-methyl-pentanamide]	−7.63	−4.37	−6.79	−7.90	−7.04	−7.47	<−8.00	>−4.00	>−4.00	−7.50	−6.71	8.41 ± 2.24 nM	−7.49	>−4.00	>−4.00	−7.75	−4.63	−7.13	−7.59	>−4.00	Log10LC50 (SK-MEL-28): −5.23; Log10TGI50 (IGROV1): −6.66; Log10GI50 (BT-549): <−8.00; Log10LC50 (BT-549): −6.84; Log10TGI50 (BT-549): −7.48; Log10GI50 (A549/ATCC): −7.52; Log10LC50 (A549/ATCC): >−4.00; Log10TGI50 (A549/ATCC): −5.93
